Experimental data reported in ChEMBL document CHEMBL1201862, “PubChem BioAssay data set” (2004).
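Assay format: 96-well plates, 48-hour exposure. The concentration for 50% growth inhibition is given as GI50.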 The source made the active and inactive calls. Cut-off read from the data, not from the text of the source: active = GI50 up to about 1.1 µM and inactive = higher.

How the values were obtained:
Assay in all cases: DTP human tumour cell line panel, 48 h
MDA-MB-231 = tested on: MDA-MB-231
CCRF-CEM = tested on: CCRF-CEM
UACC-257 = tested on: UACC-257
BT-549 = tested on: BT-549
NCI/ADR-RES = tested on: NCI/ADR-RES
U-251 = tested on: U-251
LOX IMVI = tested on: LOX IMVI
SW-620 = tested on: SW-620
Hs-578T = tested on: Hs-578T
DU-145 = tested on: DU-145
T47D = tested on: T47D
786-0 = tested on: 786-0
SNB-75 = tested on: SNB-75
HCT-15 = tested on: HCT-15
MOLT-4 = tested on: MOLT-4
SN12C = tested on: SN12C
Malme-3M = tested on: Malme-3M
OVCAR-5 = tested on: OVCAR-5
CAKI-1 = tested on: CAKI-1
TK-10 = tested on: TK-10
HCT-116 = tested on: HCT-116
A498 = tested on: A498
MDA-MB-435 = tested on: MDA-MB-435
PC-3 = tested on: PC-3
EKVX = tested on: EKVX
OVCAR-3 = tested on: OVCAR-3
SR = tested on: SR
SK-OV-3 = tested on: SK-OV-3
M14 = tested on: M14
SF-268 = tested on: SF-268
UACC-62 = tested on: UACC-62
MDA-N = tested on: MDA-N
SF-295 = tested on: SF-295
HOP-62 = tested on: HOP-62
HT-29 = tested on: HT-29
NCI-H23 = tested on: NCI-H23
RPMI-8226 = tested on: RPMI-8226
SK-MEL-2 = tested on: SK-MEL-2
OVCAR-8 = tested on: OVCAR-8
NCI-H460 = tested on: NCI-H460
SNB-19 = tested on: SNB-19
HL-60 = tested on: HL-60
SK-MEL-5 = tested on: SK-MEL-5
ACHN = tested on: ACHN
KM12 = tested on: KM12
K562 = tested on: K562
IGROV-1 = tested on: IGROV-1
MCF7 = tested on: MCF7
COLO 205 = tested on: COLO 205
RXF 393 = tested on: RXF 393
SF-539 = tested on: SF-539
NCI-H226 = tested on: NCI-H226
UO-31 = tested on: UO-31
A549 = tested on: A549
NCI-H522 = tested on: NCI-H522
SK-MEL-28 = tested on: SK-MEL-28
OVCAR-4 = tested on: OVCAR-4
HCC 2998 = tested on: HCC 2998

`CCOC(=O)c1cc(C2CCN(CC(C)CC)C2=S)c(C(=O)/C=C(/C)N)[nH]1` (stereo not given) was tested, and the GI50 (MDA-MB-231) was > 50 µM (inactive), the GI50 (CCRF-CEM) was > 50 µM (inactive) and the GI50 (UACC-257) was > 50 µM (inactive). For the same compound, the GI50 (BT-549) was > 50 µM (inactive), the GI50 (NCI/ADR-RES) was > 50 µM (inactive) and the GI50 (U-251) was > 50 µM (inactive). For the same compound, the GI50 (LOX IMVI) was > 50 µM (inactive), the GI50 (SW-620) was > 50 µM (inactive) and the GI50 (Hs-578T) was > 50 µM (inactive). The GI50 (DU-145) was > 50 µM (inactive), the GI50 (T47D) was > 50 µM (inactive) and the GI50 (786-0) was > 50 µM (inactive). The GI50 (SNB-75) was > 50 µM (inactive), the GI50 (HCT-15) was greater than 50 µM and the GI50 (MOLT-4) was > 50 µM (inactive). The GI50 (SN12C) was > 50 µM (inactive), the GI50 (Malme-3M) was > 50 µM (inactive) and the GI50 (OVCAR-5) was > 50 µM (inactive). The GI50 (CAKI-1) was > 50 µM (inactive), the GI50 (TK-10) was > 50 µM (inactive) and the GI50 (HCT-116) was > 50 µM (inactive). The GI50 (A498) was > 50 µM (inactive), the GI50 (MDA-MB-435) was > 50 µM (inactive) and the GI50 (PC-3) was > 50 µM (inactive). For the same compound, the GI50 (EKVX) was > 50 µM (inactive), the GI50 (OVCAR-3) was > 50 µM (inactive) and the GI50 (SR) was > 50 µM (inactive). The GI50 (SK-OV-3) was > 50 µM (inactive), the GI50 (M14) was > 50 µM (inactive) and the GI50 (SF-268) was > 50 µM (inactive). The GI50 (UACC-62) was > 50 µM (inactive), the GI50 (MDA-N) was > 50 µM (inactive) and the GI50 (SF-295) was > 50 µM (inactive). For the same compound, the GI50 (HOP-62) was > 50 µM (inactive), the GI50 (HT-29) was > 50 µM (inactive) and the GI50 (NCI-H23) was > 50 µM (inactive). The GI50 (RPMI-8226) was > 50 µM (inactive), the GI50 (SK-MEL-2) was > 50 µM (inactive) and the GI50 (OVCAR-8) was > 50 µM (inactive). For the same compound, the GI50 (NCI-H460) was > 50 µM (inactive), the GI50 (SNB-19) was > 50 µM (inactive) and the GI50 (HL-60) was > 50 µM (inactive). The GI50 (SK-MEL-5) was > 50 µM (inactive), the GI50 (ACHN) was > 50 µM (inactive) and the GI50 (KM12) was > 50 µM (inactive). The GI50 (K562) was > 50 µM (inactive), the GI50 (IGROV-1) was > 50 µM (inactive) and the GI50 (MCF7) was > 50 µM (inactive). The GI50 (COLO 205) was > 50 µM (inactive), the GI50 (RXF 393) was > 50 µM (inactive) and the GI50 (SF-539) was > 50 µM (inactive). For the same compound, the GI50 (NCI-H226) was > 50 µM (inactive) and the GI50 (UO-31) was > 50 µM (inactive).

`CCn1c(SCC(=O)NNC(=S)Nc2ccc(Cl)cc2)nc2ccccc2c1=O` was tested, and the GI50 (MDA-MB-231) was > 100 µM (inactive), the GI50 (A549) was 40.6 µM (inactive) and the GI50 (CCRF-CEM) was 33.1 µM (inactive). For the same compound, the GI50 (UACC-257) was 53.2 µM (inactive), the GI50 (BT-549) was 31.8 µM (inactive) and the GI50 (NCI/ADR-RES) was 47.1 µM (inactive). The GI50 (U-251) was 46.9 µM (inactive), the GI50 (LOX IMVI) was 30.1 µM (inactive) and the GI50 (SW-620) was 95.1 µM (inactive). The GI50 (Hs-578T) was > 100 µM (inactive), the GI50 (DU-145) was 55.6 µM (inactive) and the GI50 (T47D) was 35.8 µM (inactive). The GI50 (786-0) was 45.1 µM (inactive), the GI50 (SNB-75) was > 100 µM (inactive) and the GI50 (NCI-H522) was 59 µM (inactive). For the same compound, the GI50 (HCT-15) was 38.5 µM, the GI50 (MOLT-4) was 30.8 µM (inactive) and the GI50 (SN12C) was 47.5 µM (inactive). For the same compound, the GI50 (Malme-3M) was 42.2 µM (inactive), the GI50 (OVCAR-5) was > 100 µM (inactive) and the GI50 (CAKI-1) was 43.9 µM (inactive). The GI50 (TK-10) was 37.3 µM (inactive), the GI50 (HCT-116) was 39.8 µM (inactive) and the GI50 (A498) was 46.9 µM (inactive). The GI50 (MDA-MB-435) was 42.1 µM (inactive), the GI50 (PC-3) was 27.2 µM (inactive) and the GI50 (EKVX) was > 100 µM (inactive). The GI50 (OVCAR-3) was 82 µM (inactive), the GI50 (SR) was 43.9 µM (inactive) and the GI50 (SK-OV-3) was 53.8 µM (inactive). The GI50 (SK-MEL-28) was 56.6 µM (inactive), the GI50 (M14) was > 100 µM (inactive) and the GI50 (SF-268) was 87.1 µM (inactive). For the same compound, the GI50 (UACC-62) was 35.2 µM (inactive), the GI50 (MDA-N) was 55.3 µM (inactive) and the GI50 (SF-295) was 41.9 µM (inactive). The GI50 (HOP-62) was 79.1 µM (inactive), the GI50 (NCI-H23) was 45.3 µM (inactive) and the GI50 (RPMI-8226) was 24.5 µM (inactive). For the same compound, the GI50 (SK-MEL-2) was 74.8 µM (inactive), the GI50 (OVCAR-8) was 43 µM (inactive) and the GI50 (NCI-H460) was 49.8 µM (inactive). The GI50 (SNB-19) was > 100 µM (inactive), the GI50 (HL-60) was 29.9 µM (inactive) and the GI50 (OVCAR-4) was 40 µM (inactive). For the same compound, the GI50 (SK-MEL-5) was > 100 µM (inactive), the GI50 (ACHN) was 47.9 µM (inactive) and the GI50 (KM12) was 83 µM (inactive). For the same compound, the GI50 (K562) was 30.3 µM (inactive), the GI50 (IGROV-1) was > 100 µM (inactive) and the GI50 (HCC 2998) was 49 µM (inactive). For the same compound, the GI50 (MCF7) was 56.2 µM (inactive), the GI50 (COLO 205) was 70 µM (inactive) and the GI50 (RXF 393) was 26.2 µM (inactive). For the same compound, the GI50 (SF-539) was 58.1 µM (inactive), the GI50 (NCI-H226) was > 100 µM (inactive) and the GI50 (UO-31) was 32 µM (inactive).
